Values joined by “and” are separate entries in the source; they are usually repeats but may differ in a detail not shown here. Equal entries are not always repeated.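 Test compounds were applied to cells in 96-well plates for 48 hours at 5 doses. Abbreviation: GI50, concentration required for 50% inhibition of growth. TGI: total growth inhibition.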
Tests used:
Assay in all cases: NCI anticancer screen, dose series, 48 h
A498 renal = system: A498 renal
COLO 205 colon = system: COLO 205 colon
SF-295 CNS = system: SF-295 CNS
SNB-75 CNS = system: SNB-75 CNS
RPMI-8226 leukemia = system: RPMI-8226 leukemia
NCI-H522 lung = system: NCI-H522 lung
MALME-3M melanoma = system: MALME-3M melanoma
KM12 colon = system: KM12 colon
HOP-92 NSCLC = system: HOP-92 NSCLC
SNB-19 CNS = system: SNB-19 CNS
UACC-62 melanoma = system: UACC-62 melanoma
MDA-N = system: MDA-N
HCC-2998 colon = system: HCC-2998 colon
XF 498 CNS = system: XF 498 CNS

In the case of `COc1ccc2c(c1)c1c(C)c3cnccc3c(C)c1n2CCCN`, the GI50 (A498 renal) is reported as 0.317 µM, the TGI (A498 renal) is reported as 0.856 µM and 0.885 µM and the GI50 (COLO 205 colon) is reported as 0.0822 µM. For the same compound, the TGI (COLO 205 colon) was 0.751 µM and 0.259 µM, the GI50 (SF-295 CNS) was 0.147 µM and the TGI (SF-295 CNS) was 0.621 µM and 1 µM. The GI50 (SNB-75 CNS) was 0.064 µM, the TGI (SNB-75 CNS) was 0.791 µM and 0.206 µM and the GI50 (RPMI-8226 leukemia) was 0.0931 µM and 0.0894 µM. The TGI (RPMI-8226 leukemia) was 0.443 µM and 0.555 µM, the GI50 (NCI-H522 lung) was 0.0853 µM and the TGI (NCI-H522 lung) was 0.763 µM and 0.242 µM. For the same compound, the GI50 (MALME-3M melanoma) was 0.225 µM, the TGI (MALME-3M melanoma) was 1.42 µM and 0.609 µM and the GI50 (KM12 colon) was 0.0798 µM and 0.0298 µM. The TGI (KM12 colon) was 0.483 µM and 0.213 µM, the GI50 (HOP-92 NSCLC) was 0.352 µM and the TGI (HOP-92 NSCLC) was 0.739 µM and 1.13 µM. For the same compound, the GI50 (SNB-19 CNS) was 0.0337 µM, the TGI (SNB-19 CNS) was 1.44 µM and 0.512 µM and the GI50 (UACC-62 melanoma) was 0.263 µM. The TGI (UACC-62 melanoma) was 0.95 µM and 0.778 µM, the TGI (MDA-N) was 0.306 µM and the GI50 (HCC-2998 colon) was 0.0753 µM. The TGI (HCC-2998 colon) was 1.2 µM and 0.225 µM and the TGI (XF 498 CNS) was 0.942 µM.
